ChEMBL document CHEMBL1139023, “The reversed binding of beta-phenethylamine inhibitors of DPP-IV: X-ray structures and properties of novel fragment and elaborated inhibitors” (Bioorg Med Chem Lett, 2006)

Legend:
Dipeptidyl peptidase 4 [1] = target: Dipeptidyl peptidase 4 (Sus scrofa, UniProt P22411); assay: (§1) Inhibition of DPP4 by continuous fluorimetric assay
Dipeptidyl peptidase 4 [2] = target: Dipeptidyl peptidase 4 (Homo sapiens, UniProt P27487); assay: as §1
[3] = target: Dipeptidyl peptidase 4 (Sus scrofa) (UniProt P22411); assay: Inhibition of DPP4 by continuous fluorimetric assay at 100 nM
Sequence of Dipeptidyl peptidase 4 (Sus scrofa) (P22411 whole entry, looked up): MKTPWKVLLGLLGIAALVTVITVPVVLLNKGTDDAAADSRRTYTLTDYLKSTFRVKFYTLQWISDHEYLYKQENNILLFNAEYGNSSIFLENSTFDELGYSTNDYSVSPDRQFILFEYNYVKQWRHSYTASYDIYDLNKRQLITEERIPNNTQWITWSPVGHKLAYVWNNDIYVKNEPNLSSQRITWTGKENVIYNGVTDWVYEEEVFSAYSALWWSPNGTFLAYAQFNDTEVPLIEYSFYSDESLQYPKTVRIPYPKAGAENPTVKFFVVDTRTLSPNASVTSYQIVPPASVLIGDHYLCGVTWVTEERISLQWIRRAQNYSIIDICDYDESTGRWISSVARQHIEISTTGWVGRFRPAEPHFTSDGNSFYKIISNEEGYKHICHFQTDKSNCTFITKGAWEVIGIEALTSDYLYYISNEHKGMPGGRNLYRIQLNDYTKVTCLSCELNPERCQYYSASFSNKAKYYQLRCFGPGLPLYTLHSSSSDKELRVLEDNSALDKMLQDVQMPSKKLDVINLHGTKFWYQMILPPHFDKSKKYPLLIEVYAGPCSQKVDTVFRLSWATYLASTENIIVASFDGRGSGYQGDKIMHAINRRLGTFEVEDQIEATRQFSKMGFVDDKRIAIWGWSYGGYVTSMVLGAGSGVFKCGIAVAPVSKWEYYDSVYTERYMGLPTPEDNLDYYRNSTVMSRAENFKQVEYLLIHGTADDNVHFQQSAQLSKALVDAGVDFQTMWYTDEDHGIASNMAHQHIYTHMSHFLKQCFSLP

Sequence of Dipeptidyl peptidase 4 (Sus scrofa, UniProt P22411) (P22411 whole entry): as the sequence (P22411 whole entry, looked up) above
Sequence of Dipeptidyl peptidase 4 (Homo sapiens, UniProt P27487) (P27487 whole entry): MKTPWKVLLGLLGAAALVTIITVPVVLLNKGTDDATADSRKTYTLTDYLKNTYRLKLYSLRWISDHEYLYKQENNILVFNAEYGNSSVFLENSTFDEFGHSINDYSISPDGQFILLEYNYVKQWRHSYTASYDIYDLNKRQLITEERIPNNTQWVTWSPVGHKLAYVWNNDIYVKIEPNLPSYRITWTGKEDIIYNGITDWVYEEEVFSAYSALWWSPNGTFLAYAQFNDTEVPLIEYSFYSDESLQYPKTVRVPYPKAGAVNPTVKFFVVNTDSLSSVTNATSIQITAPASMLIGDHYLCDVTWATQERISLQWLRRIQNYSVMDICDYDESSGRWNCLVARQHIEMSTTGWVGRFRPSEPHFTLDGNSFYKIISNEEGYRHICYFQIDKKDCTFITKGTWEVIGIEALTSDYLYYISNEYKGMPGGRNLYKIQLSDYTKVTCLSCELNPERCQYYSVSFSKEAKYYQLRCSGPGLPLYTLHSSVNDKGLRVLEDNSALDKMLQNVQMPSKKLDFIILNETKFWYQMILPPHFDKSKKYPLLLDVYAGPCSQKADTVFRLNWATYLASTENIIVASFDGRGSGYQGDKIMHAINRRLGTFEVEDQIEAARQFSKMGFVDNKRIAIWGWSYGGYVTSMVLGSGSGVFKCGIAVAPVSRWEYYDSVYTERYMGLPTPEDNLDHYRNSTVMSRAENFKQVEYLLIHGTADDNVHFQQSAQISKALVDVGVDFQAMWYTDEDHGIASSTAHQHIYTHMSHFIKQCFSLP

SMILES	IC50 (Dipeptidyl peptidase 4 [1])	IC50 (Dipeptidyl peptidase 4 [2])	inhibition [3]
NCC1(c2ccccc2)CCCC1	30 µM		
NC(=O)[C@@H]1Cc2ccccc2CN1C(=O)C[C@H](N)Cc1ccccc1F		0.023 µM	60%
N[C@@H](CC(=O)N1CCC[C@H]1CNC(=O)c1ccccc1)Cc1ccccc1F	0.41 µM		
NCC(c1ccccc1Cl)N1CCOCC1 (stereo not given)	46 µM		
